Results on one compound are retold here after publication PMC10828444, “Selective inhibition of overactive warmth-sensitive Ca^2+-permeable TRPV3 channels by antispasmodic agent flopropione for alleviation of skin inflammation” (The Journal of Biological Chemistry, 2023).

Structures are written as SMILES. Residue numbers refer to the chain shown, from its start.

One experiment concerns the target T1, hTRPV3 channels (Homo sapiens, UniProt Q8NET8).
T1 construct: expressed in transfected cells; host or cells: HEK293
T1 sequence (Q8NET8 1-790): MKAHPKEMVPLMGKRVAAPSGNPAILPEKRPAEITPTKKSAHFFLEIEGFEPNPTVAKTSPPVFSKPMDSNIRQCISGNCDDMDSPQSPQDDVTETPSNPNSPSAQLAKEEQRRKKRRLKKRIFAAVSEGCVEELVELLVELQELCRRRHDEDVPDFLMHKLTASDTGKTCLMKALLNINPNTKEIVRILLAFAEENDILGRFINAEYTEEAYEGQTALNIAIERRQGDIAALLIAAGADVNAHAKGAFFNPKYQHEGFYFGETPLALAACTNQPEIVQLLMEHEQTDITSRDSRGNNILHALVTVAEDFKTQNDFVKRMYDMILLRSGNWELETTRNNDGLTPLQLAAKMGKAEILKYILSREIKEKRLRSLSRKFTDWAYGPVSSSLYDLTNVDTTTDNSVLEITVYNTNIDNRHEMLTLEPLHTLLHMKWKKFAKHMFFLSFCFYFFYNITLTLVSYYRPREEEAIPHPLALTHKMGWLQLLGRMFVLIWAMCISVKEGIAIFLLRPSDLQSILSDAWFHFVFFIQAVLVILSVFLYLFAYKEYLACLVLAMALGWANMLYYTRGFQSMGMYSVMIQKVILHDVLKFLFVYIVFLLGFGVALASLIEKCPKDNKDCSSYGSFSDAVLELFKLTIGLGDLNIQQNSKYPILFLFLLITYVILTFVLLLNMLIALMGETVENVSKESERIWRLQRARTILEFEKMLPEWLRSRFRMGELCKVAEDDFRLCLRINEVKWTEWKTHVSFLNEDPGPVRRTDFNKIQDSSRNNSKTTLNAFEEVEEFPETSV
The experiment can be described thus: Whole-cell patch-clamp of hTRPV3 currents activated by 2-APB in HEK293 cells. The experiment is classed as cell-based. The protocol:
(§1) HEK293 cells were cultured in Dulbecco’s modified Eagle’s medium (DMEM, Gibco) containing 4.5 g/L D-glucose supplemented with 10% fetal bovine serum based at 37 °C with 5% CO2. For whole-cell patch-clamp recordings, cells were grown in glass coverslips for 24 h before transient transfections with 3000 ng cDNAs of hTRPV3 (gene accession number BC104866.1), hTRPV1 (accession number NM_080704.3), mTRPV2 (accession number NM_011706.2), hTRPV4 (accession number NM_021625.5), hTRPA1 (accession number NM_007332.3) and hTRPM8 (accession number NM_024080.5) into HEK293 cells grown in a 35-mm cell culture dish using Lipofectamine 2000 (Invitrogen). Cells were used 18 ∼ 24 h after transfection. All WT or mutant hTRPV3 plasmids were validated by DNA sequencing.
(§2) Whole-cell patch clamp recordings of wild-type and mutants were carried out at room temperature using the HEKA EPC10 amplifier powered by PatchMaster software (HEKA) or MultiClamp 700B amplifier driven by Clampex 11.0.3 software. The borosilicate glass pipettes were pulled and fire-polished to 3∼6 MΩ using a DMZ universal electrode puller (Zeitz-Instruments, GmbH). Pipette solution and bath solution both contained (in mM): 130 NaCl, three HEPES, and 0.2 EDTA (pH = 7.4). Cell membrane potential was held at 0 mV, currents were recorded at a voltage ramp from −100 to +100 mV for 500-ms and analyzed at ±80 mV.

In another experiment the target is T2, TRPV3-F666A mutant (Homo sapiens, UniProt Q8NET8, F666A).
T2 construct: expressed in transfected cells; host or cells: HEK293
T2 sequence (Q8NET8 1-790 F666A): T1 sequence (Q8NET8 1-790) with F666A
The experiment can be described thus: Whole-cell and single-channel recordings of TRPV3-F666A mutant. As to conditions: 100 μM flopropione whole-cell (50 μM 2-APB); 50 μM single-channel (30 μM 2-APB). The experiment is classed as cell-based. The method, then: as §1
as §2, with “mV. […]” for “mV.”

As for `CCC(=O)c1c(O)cc(O)cc1O` [flopropione], the inhibition at 100 µM at hTRPV3 channels (HEK293, flopropione 100 μmol/L, agonist 2-APB 50 μmol/L, read-out: inhibition of TRPV3 currents) was about 84%. In addition, the IC50 at hTRPV3 channels (whole-cell, HEK293, 50 μM 2-APB activation, n = 5, mean ± SD, read-out: IC50 of dose-dependent inhibition of TRPV3 currents) came out at 17.8 ± 3.5 µM. Besides, the “effect of F666A mutation on flopropione-mediated inhibition” value at TRPV3-F666A mutant is “no effect”.

One may read the inhibition as the percentage by which the read-out fell short of the control. As a reminder, the IC50 is the point on the concentration scale where inhibition reaches its midpoint.
